Assay results as given in PubChem BioAssay AID463074 (Broad Institute, 2010).
Activity calls are given as the source filed them.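 How the source made its calls: active means AC50 no more than tenfold above the top dose tested, or full inhibition at every dose with a flat fit (cut at about 19 µM in these data); inconclusive means flat curve fit with inhibition between 30% and 70%, or poor fit; inactive means AC50 more than tenfold above the top dose tested.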

System: HMLE_sh_eGFP viability, CellTiter-Glo luminescence, 72 h
Assay: cytotoxicity in HMLE control line with eGFP shRNA, dose response, counter-screen for HMLE_sh_ECad selective toxicity project, cell-based, HMLE_sh_eGFP, luminescence (AID 463074);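 further: counterscreen control line to flag general toxicity for the HMLE_sh_ECad screen; potency for loss of viability as luminescence drops below DMSO wells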

Compound	AC50
COc1ccc(-c2c(C#N)c(SCC(=O)c3cc4ccccc4oc3=O)nc(C)c2C(=O)Nc2ccccc2)cc1	1.5 µM
Cc1ccc(Nc2nc(N)c([N+](=O)[O-])c(NCc3ccco3)n2)cc1C	7.19 µM
Nc1ccc(CCN2CCN(c3cccc(C(F)(F)F)c3)CC2)cc1	1.42 µM
O=S(=O)(Nc1nc2ccccc2nc1N1CCN(c2ccccc2F)CC1)c1ccc(Cl)cc1	5.8 µM
O=C(CNC(=O)C(c1ccccc1)c1ccccc1)N/N=C/c1ccc(O)cc1O	1.88 µM
CC(Nc1nc(-c2ccccc2)nc2ccccc12)c1ccccc1 (stereo not drawn)	5.38 µM
O=C(Nc1ccc2nc3n(c(=O)c2c1)CCCCC3)c1cc([N+](=O)[O-])ccc1F	6.62 µM
Clc1ccc2nnnc(-c3ccccc3)c2c1	4.26 µM
CCOC(=O)N1CCN(S(=O)(=O)c2ccc(C(=O)NNc3nc4cc(C)cc(C)c4s3)cc2)CC1	3.7 µM
CCC(C)Sc1cccc(-c2nc3cc(C)ccn3c2NCc2ccccc2)c1 (stereo not drawn)	4.89 µM
O=c1c(Cl)c(NCc2ccccc2)cnn1C12CC3CC(CC(C3)C1)C2	3.19 µM
COc1cc2sc(-c3ccccc3OC)c(-c3ccc(O)cc3)c2cc1OC	5.22 µM
CC1CCCC(NCC(O)COC(c2ccc(F)cc2)c2ccc(F)cc2)C1C (stereo not drawn)	6.69 µM
COC(=O)c1ccc(/C=C/c2c(-c3ccc(OC)cc3)oc3ccccc23)cc1	5.95 µM
NS(=O)(=O)c1ccc(NC(=O)COC(=O)c2c3c(nc4ccccc24)/C(=C\c2ccc4c(c2)OCO4)CCC3)cc1	6.87 µM
Cc1oc2c(F)c(F)c(F)c(F)c2c1S(=O)(=O)Nc1cccc(C(F)(F)F)c1	4.95 µM
Cc1c(CCOC(=O)CC23CC4CC(CC(C4)C2)C3)sc[n+]1CC(=O)c1ccc(Br)cc1	2.6 µM
O=C(Nc1ccccc1)Nc1ccc(O)c2ccccc12	3.94 µM
Fc1ccccc1COc1ccc(-c2nnn(Cc3ccccc3F)n2)cc1	4.81 µM
CN1C(=O)/C(=C/c2cc(N=Nc3ccccc3)ccc2O)SC1=S	1.29 µM
S=c1[nH]nc(C2CCCCC2)n1/N=C/C(Cl)=C\c1ccccc1	8.35 µM
O=C(Nc1ccc([N+](=O)[O-])cc1)Nc1ccc(OC(F)F)c(Cl)c1	2.09 µM
O=C(NCc1nc(-c2ccc(C(F)(F)F)cc2)no1)Nc1ccc(OC(F)(F)F)cc1	3.12 µM
C=CCSC(=C(C#N)C#N)c1cc2c([nH]1)CCCC2	13.5 µM
C[C@H](CO)N1C[C@H](C)[C@@H](CN(C)C(=O)Nc2ccc(C(F)(F)F)cc2)Oc2c(NC(=O)Nc3ccc(C(F)(F)F)cc3)cccc2C1=O	4.26 µM
O=C(NCC1CCCCC1)c1cc2ccccc2cc1O	7.79 µM

Compound	AC50
COC(=O)c1cccc(NC(=O)Nc2ccc(Cl)c(Cl)c2)c1	11.4 µM
CCCCCCOc1ccc(OC(=O)c2ccncc2)cc1	5.43 µM
O=C1C=C(c2ccc(Cl)c(C(F)(F)F)c2)C[C@@H](c2ccc(Cl)cc2)C1	3.52 µM
COc1cc(NS(C)(=O)=O)ccc1Nc1c2ccccc2nc2ccccc12	2.11 µM
Cc1cc(C(=O)NNc2ccc(Cl)cc2)no1	1.37 µM
Cc1noc(C)c1CSc1nc2ccccc2nc1NS(=O)(=O)c1ccc(Cl)cc1	1.79 µM
CC1=NN(c2ccccc2)C(=O)/C1=C\C=C\c1ccccc1	3.55 µM
CN(C)c1ccc(-c2cc([C@H]3[C@@H]4C=CCC[C@@]4(C)C(=O)N3Cc3ccccc3)ccc2F)cc1	6.46 µM
O=C(Nc1ccc(Nc2ccccc2)cc1)Nc1ccccc1Cl	3.44 µM
CC(=O)O[C@H]1[C@@H](O)[C@H](O)[C@H](Oc2c(O)c(C)c3c4c2[C@@H](C)CC[C@@H]4[C@@H](C)C[C@H]3C=C(C)C)O[C@H]1C	3.57 µM
COc1cc(/C=C/c2ccc3cccc(OC)c3n2)c(OC(C)=O)c([N+](=O)[O-])c1	16.2 µM
COc1ccc(-c2oc3ccc(N4CCOCC4)cc3c2C#CCO)cc1	10.4 µM
CCCC(C)c1nnc(NC(=O)COc2ccc3c(c2)OCO3)s1 (stereo not drawn)	9.04 µM
Cc1ccc(-c2ccc([C@H]3[C@@H]4C=CCC[C@@]4(C)C(=O)N3Cc3ccccc3)c(F)c2)cc1	5.32 µM
O=c1c(Cl)c(NCc2ccccc2Cl)cnn1C12CC3CC(CC(C3)C1)C2	2.43 µM
CC(/C=N/n1c(C2CCCCC2)n[nH]c1=S)=C\c1ccccc1	4.88 µM
CCCCc1ccc(NC(=O)Nc2cc(C)nn2C)cc1	2.09 µM
Cc1ccc([N+](=O)[O-])cc1-c1ccc(/C=C(\C#N)c2[nH]nc(N)c2C#N)o1	4.84 µM
OC(CNCc1ccco1)Cn1c2ccc(Br)cc2c2cc(Br)ccc21 (stereo not drawn)	3.64 µM
O=C(c1ccc(OCCN2CCCCC2)cc1)c1c(-c2ccc(O)cc2)sc2cc(O)ccc12	2.35 µM
COc1ccc2sc(-c3ccccc3OC)c(-c3ccc(O)cc3)c2c1	6.71 µM
O=C(Nc1nc2ccccc2s1)C1CCN(S(=O)(=O)c2cc([N+](=O)[O-])ccc2Cl)CC1	19 µM
Cc1cc(C)n(Cc2ccc(NC(=O)c3ccc(COc4ccccc4Br)cc3)cc2)n1	3.03 µM
COc1ccc(-c2oc3c4c(cc(OC)c3c(=O)c2CC=C(C)C)OC(C)(C)C=C4)c(OC)c1	7.18 µM
O=C(Nc1ncc(Cc2cccc([N+](=O)[O-])c2)s1)c1ccco1	1.44 µM
Cc1ccc(NNC(=O)c2ccno2)cc1Cl	4 µM

Compound	AC50
COc1cc(OC)cc(-c2cc3ccc(OC)cc3cn2)c1	5.43 µM
COc1ccc(-c2sc3ccccc3c2-c2ccc(OCCN3CCCCC3)cc2)cc1	1.4 µM
CN(CCO)c1cc(Sc2nc3ccccc3s2)c2nonc2c1[N+](=O)[O-]	2.49 µM
C=C(C)CNC(=S)NNC(=O)CCn1c2ccc(Cl)cc2c2cc(Cl)ccc21	1.8 µM
C=CCC[C@H](Cc1ccc(F)cc1)C(=O)OC[C@@H](Cc1c[nH]c2ccccc12)NC(=O)[C@H](CC=C)CC(=O)N(CCO)Cc1ccccc1	4.1 µM
Cc1cccc(-c2cc3nc(C)cc(N4CC(C)CC(C)C4)n3n2)c1 (stereo not drawn)	6.87 µM
O=C(CN(c1cccc(C(F)(F)F)c1)S(=O)(=O)c1ccc(Cl)c([N+](=O)[O-])c1)NCc1ccccc1Cl	2.6 µM
O=C(Nc1nc(-c2cc(Cl)sc2Cl)cs1)c1cccs1	2.42 µM
COc1ccc(CCC(C)NCC2CCCCC2)cc1 (stereo not drawn)	1.66 µM
CCCCCCSc1cc(-c2nc3ccc(C)cn3c2NCCCC)ccc1OC	6.6 µM
O=C(NCCc1c[nH]c2ccccc12)C1CCC(Cn2c(=S)[nH]c3ccccc3c2=O)CC1 (stereo not drawn)	0.707 µM
COc1cc(/C=C2\C(=O)ON=C2c2ccc(Cl)cc2)ccc1O	1.55 µM
CC(C)(C)[C@H](N)C(=O)N[C@H]1CCC2C3CC=C4C[C@@H](O)CC[C@]4(C)C3CC[C@@]21C (stereo partly drawn)	7.74 µM
O=C(NC(=S)Nc1cccc(Cl)c1N1CCCCC1)c1ccco1	3.81 µM
COC(=O)C1=C(C)N(Cc2ccccc2)C(=NCCc2c[nH]c3ccccc23)N[C@H]1c1cccc(F)c1	7.06 µM
COc1ccc(-c2cccc([C@H]3[C@@H]4C=CCC[C@@]4(C)C(=O)N3Cc3ccccc3)c2)cc1	7.45 µM
O=C(Nc1ccccc1)NN(C(=O)CCl)c1ccccc1	6.45 µM
Cc1sc2ncnc(N3CCN(CCOc4ccc(Cl)cc4)CC3)c2c1C	7.16 µM
O=C(O)c1cc(O)ccc1NC(=O)C(c1ccccc1)c1ccccc1	> 19.5 µM (inactive)
C[C@@H](CSc1ccc(Br)cc1)CN1CC[C@H](C(C)(C)C)CCC1=O	3.35 µM
CCOC(=O)c1ccc(NC(=O)c2nc[nH]c2C(=O)NCCCCNC(=O)c2[nH]cnc2C(=O)Nc2ccc(C(=O)OCC)cc2)cc1	3.99 µM
CN(/N=C/c1cc(Cl)cc(Cl)c1O)C(=S)NC(C)(C)C	2.75 µM
Cc1cc(Nc2nc(Cl)c(Cl)cc2Cl)n(-c2ccccc2)n1	11.3 µM
CC(=O)OCCCNc1cc(Sc2ccc(Cl)cc2)c2nonc2c1[N+](=O)[O-]	4.28 µM
O=C(NCc1ccco1)c1cc(-c2ccc3c(c2)OCO3)on1	0.973 µM
O=C(CSc1nnc(-c2ccccc2O)n1Cc1ccccc1)NNC(=O)c1ccccc1O	3.22 µM

Compound	AC50
COc1ccc(/C=N/NC(=S)Nc2ccccc2[N+](=O)[O-])cc1O	5.87 µM
Cn1nc(C(F)(F)F)c(C(=O)Nc2cccc(C(F)(F)F)c2)c1SCc1ccc(Cl)cc1	7.09 µM
CCOC(=O)/C=C/C(=O)Nc1cccc([N+](=O)[O-])c1	8.97 µM
O=C(Nc1cc(S(=O)(=O)Nc2ccc(Cl)cc2)ccc1N1CCCCC1)c1ccc(F)cc1	8.97 µM
C=CCn1c(SCc2c(C)noc2C)nc2ccccc2c1=O	1.78 µM
CC[C@@H]1CC=C[C@H]2[C@H]1C(=O)N(Cc1ccccc1)[C@H]2c1ccoc1	7.03 µM
COc1ccc(NS(=O)(=O)c2cccc(C(=O)N/N=C(\C)c3ccc(-n4ccnc4)cc3)c2)cc1	> 19.5 µM (inactive)
Cc1ccccc1CNc1ccc(C(CC(N)=O)NC(=O)c2ccc(Br)cc2)cc1[N+](=O)[O-] (stereo not drawn)	3.96 µM
CCOC(=O)c1c(CSc2ccccc2)n(C)c2cc(Br)c(OCC(O)CNC(CO)(CO)CO)cc12 (stereo not drawn)	1.84 µM
O=C(N/N=C/c1cccc(O)c1)c1ccc(COc2ccccc2Br)cc1	6.42 µM
Cc1cccc(NS(=O)(=O)c2ccc(C3CCCCC3)cc2)c1	5.18 µM
C/C(=N\NC(=O)c1cc(C)nc2ccccc12)c1ccccn1	13.1 µM
CN1CCN(c2ccc(NC(=O)COc3ccc(Cl)cc3Cl)cc2)CC1	5.38 µM
CCc1ccc(Nc2nc(N)nc(CSc3nc4ccccc4s3)n2)cc1	> 19.5 µM (inactive)
CN(CC(=O)Nc1ccc(Cl)c(Cl)c1)C(=O)C12CC3CC(CC(C3)C1)C2	6.2 µM
COc1ccc(-c2cc(C(=O)N3CC4(C)CC3CC(C)(C)C4)no2)cc1OC (stereo not drawn)	10.6 µM
Cc1cc2nc(NCCCO)n(CC(=O)c3cc(C(C)(C)C)c(O)c(C(C)(C)C)c3)c2cc1C	3.56 µM
O=C(/C=C/c1ccccc1)/C=C/c1ccccc1	2.84 µM
CCCCn1c(=O)c(C(=O)NCc2ccc(Cl)cc2)c(O)c2ccccc21	7.8 µM
O=C(NCC(c1cccs1)N1CCOCC1)c1ccc(Cl)s1 (stereo not drawn)	1.76 µM
CN(C)C(CNS(=O)(=O)c1ccc2ccccc2c1)c1ccccc1 (stereo not drawn)	> 19.5 µM (inactive)
Cc1ccc(COc2ccccc2-c2cc(C(=O)N/N=C/c3cccnc3)[nH]n2)cc1	12.6 µM
COC(=O)c1c(NC(=O)COc2ccc(Cl)cc2Cl)sc2c1CC(C)(C)NC2(C)C	6.62 µM
COc1ccc(CNC(=O)c2c(N)n(CCCN3CCOCC3)c3nc4ccccc4nc23)cc1	6.67 µM
CCCCNc1c(-c2ccc(OC)c(SC3CCCCC3)c2)nc2cc(C)ccn12	5.29 µM
